For the experiment, the target named is T1, human mGluR4 (Homo sapiens, UniProt Q14833).
T1 construct: expressed in transfected cells; host or cells: HEK-293
Kind of experiment: mGluR4 Assay on HEK-Expressing Human mGluR4 (FLIPR Ca2+ fluorescence, PAM activity). Format: cell-based. The conditions noted are these: human mGluR4 HEK-293 cells. The procedure:
mGluR4 Assay on HEK-Expressing Human mGluR4
Since, as explained above, the compounds of the present invention are positive allosteric modulators of mGluR4 receptors, which activity was assayed by detecting changes in intracellular Ca^+2 ion concentration using a Ca^+2-sensitive fluorescent dye (Fluo4-(AM)) and a fluorometric imaging plate reader (FLIPR, Molecular Devices, Sunnyvale, Calif.) in accordance with the manufacturers instructions.
Accordingly, 24 hours prior to carrying out an analysis, human mGluR4 HEK-293 cells were plated out in black-walled, clear-bottomed, poly-L-ornithine-coated 384-well plates at a density of 25,000 cells/well in a glutamine/glutamate-free DMEM medium containing fetal bovine serum (10%), penicillin (100 units/mL) and streptomycin (100 micrograms/mL) at 37° C. under 5% CO2. On the day of the assay, the medium was aspirated and the cells were loaded with a 3 micro-molar solution of Fluo4-AM (LuBioScience, Lucerne, Switzerland) in 0.03% pluronic acid. After maintaining the plate 1 hour at 37° C. under 5% CO2 the non-incorporated dye was removed by washing the cell plate with the assay buffer and the cells were left in the dark at room temperature for six hours before evaluating. All assays were performed in a pH 7.4 buffered-solution containing 20 mM HEPES, 142 mM NaCl, 6 mM KCl, 1 mM MgSO4, 1 mM CaCl2, 0.125 mM sulfapyrazone, and 1% glucose.
Basal fluorescence was recorded over 10 seconds, then aliquots of various concentrations of a compound of the invention were added to the cells. Changes in fluorescence level were first monitored for 180 seconds in order to detect any agonist activity attributable to the compound being assayed. Then the cells were stimulated for an additional 110 seconds by that concentration of glutamate yielding 25% of the maximal response to glutamate (EC25). Concentration-response curves of compounds of the invention were generated using Prism GraphPad software (Graph Pad Inc., San Diego, USA). Curves generated were fitted to a four-parameter logistic equation allowing the determination of EC50 values:
Y=Bottom+(Top−Bottom)/(1+10^logEC^50-^X)*Hill Slope.
For each sample assayed, at least three independent measurements were performed. EC50 values thus determined are reported for each of the compounds of the invention in the respective Tables 1 to 3 herein above.

Setting [1] is: Table I, Fluo4-AM/FLIPR, stimulated with glutamate EC25.
Where [2] appears, read: Table II, Fluo4-AM/FLIPR, stimulated with glutamate EC25.

T1 sequence (Q14833 33-912): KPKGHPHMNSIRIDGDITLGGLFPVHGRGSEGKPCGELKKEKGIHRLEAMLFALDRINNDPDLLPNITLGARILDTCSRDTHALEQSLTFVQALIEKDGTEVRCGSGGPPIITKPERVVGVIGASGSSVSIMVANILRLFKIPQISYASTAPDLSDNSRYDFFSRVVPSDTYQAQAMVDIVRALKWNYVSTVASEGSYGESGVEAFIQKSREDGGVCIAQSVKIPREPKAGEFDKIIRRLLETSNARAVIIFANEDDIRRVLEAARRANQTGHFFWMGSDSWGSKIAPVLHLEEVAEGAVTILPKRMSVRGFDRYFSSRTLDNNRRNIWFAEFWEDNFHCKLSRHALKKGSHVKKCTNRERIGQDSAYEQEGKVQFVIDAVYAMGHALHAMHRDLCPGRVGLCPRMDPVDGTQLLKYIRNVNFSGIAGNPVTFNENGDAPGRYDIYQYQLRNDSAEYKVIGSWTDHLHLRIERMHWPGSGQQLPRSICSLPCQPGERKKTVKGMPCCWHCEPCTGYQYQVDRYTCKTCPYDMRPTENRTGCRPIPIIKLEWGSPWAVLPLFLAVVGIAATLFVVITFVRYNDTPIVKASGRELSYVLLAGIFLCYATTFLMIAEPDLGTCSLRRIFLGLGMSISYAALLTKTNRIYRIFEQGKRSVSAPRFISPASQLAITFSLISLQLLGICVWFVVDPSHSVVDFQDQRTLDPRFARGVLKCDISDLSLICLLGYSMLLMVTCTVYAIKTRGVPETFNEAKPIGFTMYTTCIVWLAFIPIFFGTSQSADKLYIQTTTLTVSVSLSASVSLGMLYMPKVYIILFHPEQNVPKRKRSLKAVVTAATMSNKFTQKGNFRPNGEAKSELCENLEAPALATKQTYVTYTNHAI

Compound `Cc1ccnc(Nc2nc3c(ccc4[nH]ncc43)s2)n1` [Cmpd 2, N-(4-methylpyrimidin-2-yl)-6H-[1,3]thiazolo[4,5-e]indazol-2-amine] registered a concentration for a half-maximal effect (EC50) under setting [1] of 28 nM.

For `Cc1ccnc(Nc2nc3c(s2)CN(C)Cc2[nH]ncc2-3)n1` [Cmpd 28, 5-methyl-N-(4-methylpyrimidin-2-yl)-4,5,6,7-tetrahydropyrazolo[3,4-c][1,3]thiazolo[4,5-e]azepin-2-aminee], under setting [2], the EC50 is 2380 nM.

The compound `Cc1ccnc(Nc2nc3c(s2)COC(C)c2[nH]ncc2-3)n1` (racemic) [Cmpd 18, N-(4-methylpyrimidin-2-yl)-6-methyl-6,7-dihydro-4H-pyrazolo[4′,3′:5,6]oxepino[4,3-d][1,3]-thiazol-2-amine] registered an EC50 under setting [2] of 3 nM.

The compound `Cc1ccnc(Nc2nc3c(s2)C(C)OCc2[nH]ncc2-3)n1` (stereo not drawn) [Cmpd 23, 4-methyl-N-(4-methylpyrimidin-2-yl)-6,7-dihydro-4H-pyrazolo[4′,3′:5,6]oxepino[4,3-d][1,3]thiazol-2-amine] yielded an EC50 under setting [2] of 186 nM.

Regarding `Cc1ccnc(Nc2nc3c(s2)CC(F)Cc2[nH]ncc2-3)n1` (stereo not drawn) [Cmpd 40], the midpoint of the response under setting [2], the EC50, lay at 20 nM.

In the case of `Cc1ccnc(Nc2nc3c(cc(C)c4[nH]ncc43)s2)n1` [Cmpd 8, 5-methyl-N-(4-methylpyrimidin-2-yl)-6H-[1,3]thiazolo[4,5-e]indazol-2-amine], the EC50 under setting [1] turned out to be 129 nM.

On to `Cc1ccnc(Nc2nc3c(s2)CCC(F)(F)c2[nH]ncc2-3)n1` [Cmpd 34, 6,6-difluoro-N-(4-methylpyrimidin-2-yl)-4,5,6,7-tetrahydropyrazolo[3′,4′:6,7]cyclohepta[1,2-d][1,3]thiazol-2-amine], for which a half-maximal response under setting [2] (EC50) required 56 nM.

Take `CC1Cc2sc(Nc3ncccn3)nc2-c2cn[nH]c21` (stereo not drawn) [Cmpd 9, 5-methyl-N-(pyrimidin-2-yl)-5,6-dihydro-4H-[1,3]thiazolo[4,5-e]indazol-2-amine]: the EC50 under setting [1] turned out to be 2 nM.

`Cc1ccnc(Nc2nc3c(s2)C(C)(C)Cc2[nH]ncc2-3)n1` [Cmpd 1, 4,4-dimethyl-N-(4-methylpyrimidin-2-yl)-5,6-dihydro-4H-[1,3]thiazolo[4,5-e]indazol-2-amine] had an EC50 under setting [1] of 326 nM.

`Cc1nc(Nc2nc3c(s2)C(C)(C)Cc2[nH]ncc2-3)ncc1F` [Cmpd 5, N-(5-fluoro-4-methylpyrimidin-2-yl)-4,4-dimethyl-5,6-dihydro-4H-[1,3]thiazolo[4,5-e]indazol-2-amine]: it took 645 nM to reach a half-maximal effect under setting [1] (EC50).

As for `Clc1cc2sc(Nc3ncccn3)nc2c2cn[nH]c12` [Cmpd 7, 5-chloro-N-(pyrimidin-2-yl)-6H-[1,3]thiazolo[4,5-e]indazol-2-amine], the EC50 under setting [1] is 2 nM.

With `Cc1ccnc(Nc2nc3c(s2)CCC(=O)c2[nH]ncc2-3)n1` [Cmpd 36, 2-[(4-methylpyrimidin-2-yl)amino]-4,7-dihydropyrazolo[3′,4′:6,7]cyclohepta[1,2-d][1,3]thiazol-6(5H)-one], under setting [2], the EC50 stood at 1500 nM.

The compound `Cc1ccnc(Nc2nc3c(s2)COCc2[nH]ncc2-3)n1` [Cmpd 17, N-(4-methylpyrimidin-2-yl)-6,7-dihydro-4H-pyrazolo[4′,3′:5,6]oxepino[4,3-d][1,3]thiazol-2-amine] registered an EC50 under setting [2] of 10 nM.

For `CC1(C)Cc2[nH]ncc2-c2nc(Nc3ncc(F)cn3)sc21` [Cmpd 4, N-(5-fluoropyrimidin-2-yl)-4,4-dimethyl-5,6-dihydro-4H-[1,3]thiazolo[4,5-e]indazol-2-amine], a half-maximal response under setting [1] (EC50) required 753 nM.

Regarding `Brc1cc2sc(Nc3ncccn3)nc2c2cn[nH]c12` [Cmpd 6, 5-bromo-N-(pyrimidin-2-yl)-6H-[1,3]thiazolo[4,5-e]indazol-2-amine], the EC50 under setting [1] was 1 nM.

Under setting [1], `Fc1cnc(Nc2nc3c(s2)C2(CC2)Cc2[nH]ncc2-3)nc1` [Cmpd 13, N-(5-fluoropyrimidin-2-yl)-5′,6′-dihydrospiro[cyclopropane-1,4′-[1,3]thiazolo[4,5-e]indazol]-2′-amine] displayed an EC50 of 93 nM.

Under setting [1], `Cc1ccnc(Nc2nc3c(s2)C2(CC2)Cc2[nH]ncc2-3)n1` [Cmpd 11, N-(4-methylpyrimidin-2-yl)-5′,6′-dihydrospiro[cyclopropane-1,4′-[1,3]thiazolo[4,5-e]indazol]-2′-amine] showed an EC50 of 545 nM.

In turn, `Cc1nc(Nc2nc3c(s2)COC(C)c2[nH]ncc2-3)ns1` (stereo not drawn) [Cmpd 38] came in with an EC50 (text b34, glutamate EC25) of 70 nM.

Regarding `c1cnc(Nc2nc3c(s2)C2(CC2)Cc2[nH]ncc2-3)nc1` [Cmpd 12, N-(pyrimidin-2-yl)-5′-6′-dihydrospiro[cyclopropane-1,4′-[1,3]thiazolo[4,5-e]indazol]-2′-amine], under setting [1], the EC50 worked out at 35 nM.

`Cc1ccnc(Nc2nc3c(s2)C(C)OC(C)c2[nH]ncc2-3)n1` (stereo not drawn) [Cmpd 24, 4,6-dimethyl-N-(4-methylpyrimidin-2-yl)-6,7-dihydro-4H-pyrazolo[4′,3′:5,6]oxepino-[4,3-d][1,3]thiazol-2-amine] registered an EC50 under setting [2] of 121 nM.

For `c1cnc(Nc2nc3c(s2)CNCc2[nH]ncc2-3)nc1` [Cmpd 27, N-(pyrimidin-2-yl)-4,5,6,7-tetrahydropyrazolo[3,4-c][1,3]thiazolo[4,5-e]azepin-2-amine], the concentration for a half-maximal effect (EC50) under setting [2] amounted to 994 nM.

`c1cnc(Nc2nc3c(ccc4[nH]ncc43)s2)nc1` [Cmpd 3, N-(pyrimidin-2-yl)-6H-[1,3]thiazolo[4,5-e]indazol-2-amine]: the response under setting [1] was half-maximal at 9 nM (EC50).

Take `COc1ccnc(Nc2nc3c(s2)COCc2[nH]ncc2-3)n1` [Cmpd 19, N-(4-methoxypyrimidin-2-yl)-6,7-dihydro-4H-pyrazolo[4′,3′:5,6]oxepino[4,3-d][1,3]thiazol-2-amine]: the EC50 under setting [2] is 28 nM.

As to `Fc1cnc(Nc2nc3c(s2)COCc2[nH]ncc2-3)nc1` [Cmpd 15, N-(5-fluoropyrimidin-2-yl)-6,7-dihydro-4H-pyrazolo[4′,3′:5,6]oxepino[4,3-d][1,3]thiazol-2-amine], the EC50 under setting [2] came to 8 nM.

`Cc1ccnc(Nc2nc3c(s2)CC(C)c2[nH]ncc2-3)n1` (stereo not drawn) [Cmpd 10, 5-methyl-N-(4-methylpyrimidin-2-yl)-5,6-dihydro-4H-[1,3]thiazolo[4,5-e]indazol-2-amine]: the EC50 under setting [1] stood at 36 nM.

Under setting [2], `c1cnc(Nc2nc3c(s2)Cc2[nH]ncc2-3)nc1` [Cmpd 14, N-(pyrimidin-2-yl)-1,7-dihydropyrazolo[3′,4′:4,5]cyclopenta[1,2-d][1,3]thiazol-5-amine] gave an EC50 of 1420 nM.

Under setting [2], `c1cnc(Nc2nc3c(s2)COCc2[nH]ncc2-3)nc1` [Cmpd 16, N-(pyrimidin-2-yl)-6,7-dihydro-4H-pyrazolo[4′,3′:5,6]oxepino[4,3-d][1,3]thiazol-2-amine] gave an EC50 of 7 nM.

In turn, `CCc1ccnc(Nc2nc3c(s2)COC(C)c2[nH]ncc2-3)n1` (stereo not drawn) [Cmpd 20, 6-Methyl-N-[4-(ethyl)pyrimidin-2-yl]-6,7-dihydro-4H-pyrazolo[4′,3′:5,6]oxepino[4,3-d][1,3]thiazol-2-amine] showed an EC50 under setting [2] of 173 nM.

As to `Cc1nc(Nc2nc3c(s2)COC(C)c2[nH]ncc2-3)ncc1F` (stereo not drawn) [Cmpd 21, N-(5-Fluoro-4-methylpyrimidin-2-yl)-6-methyl-6,7-dihydro-4H-pyrazolo[4′,3′:5,6]oxepino[4,3-d][1,3]thiazol-2-amine], the EC50 under setting [2] was 27 nM.

As for `Fc1cnc(Nc2nc3c(s2)CCCc2[nH]ncc2-3)nc1` [Cmpd 29, N-(5-fluoropyrimidin-2-yl)-4,5,6,7-tetrahydropyrazolo[3′,4′:6,7]cyclohepta[1,2-d][1,3]thiazol-2-amine], the EC50 under setting [2] worked out at 39 nM.

As a reminder, the EC50 is the concentration giving half of the maximal effect.

The record behind these values is patent US20130210807A1, “Tricyclic Compounds as Allosteric Modulators of Metabotropic Glutamate Receptors” (priority 2010, published 2013).
